Measured values reported in patent US7550469B2, “Heterocyclic amide derivatives and their use as dopamine D3 receptor ligands” (Aventis Pharmaceuticals Inc., priority 2001, dated 2009).
Where two headings read alike, the source gives them in different places.

Biological target: T1, cloned human dopamine D3 receptors (Homo sapiens, UniProt P35462)
T1 construct: expressed in transfected cells; membrane homogenate
Experiment: [N-Methyl-3H]Spiroperidol binding to cloned human dopamine D3 receptors (Protocol 1)
In short: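 Membranes from CHO cells stably expressing cloned human D3 receptor were used for [N-methyl-3H]spiroperidol (60-90 Ci/mmol) binding. Assay buffer was 0.05 M Tris HCl pH 7.7 with 120 mM NaCl, 5 mM KCl, 2 mM CaCl2 and 1 mM MgCl2, optionally 0.1% ascorbic acid; total ligand concentration calculated from added CPM.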

[1] = the 13th table, unit inferred, read-out: D3Ki

T1 sequence (P35462 whole entry): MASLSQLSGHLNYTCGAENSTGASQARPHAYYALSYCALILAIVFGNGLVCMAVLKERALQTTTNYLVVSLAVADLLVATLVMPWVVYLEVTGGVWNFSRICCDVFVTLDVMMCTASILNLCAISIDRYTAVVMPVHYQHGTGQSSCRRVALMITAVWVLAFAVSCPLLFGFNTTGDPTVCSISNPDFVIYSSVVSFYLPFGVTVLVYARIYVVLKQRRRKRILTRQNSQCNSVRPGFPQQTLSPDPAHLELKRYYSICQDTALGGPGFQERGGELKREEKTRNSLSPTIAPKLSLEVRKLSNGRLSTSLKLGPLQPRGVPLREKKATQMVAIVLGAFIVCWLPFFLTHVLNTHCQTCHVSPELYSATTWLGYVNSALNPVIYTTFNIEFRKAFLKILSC

SMILES	Ki (read-out: D3K1) [nM]	Ki [1] [nM]	also measured
O=C(NCCCCN1CCN(c2csc3cc(C(F)(F)F)ccc23)CC1)c1cc2ccccc2s1 [814238A]	1.9		
O=C(NCCCCN1CCN(c2csc3cc(C(F)(F)F)ccc23)CC1)c1ccc(-c2ccccc2)cc1 [815547A]			Ki (Table 2, read-out: D3K1): 3.43 nM
O=C(NCCCCN1CCCN(c2csc3cc(F)ccc23)CC1)c1ccc2ccccc2c1 [822223G]		2.45	
O=C(NCCCCN1CCCN(c2csc3cc(F)ccc23)CC1)c1cc2ccccc2s1 [822224G]		1.07	
O=C(NCCCCN1CCCN(c2csc3cc(F)ccc23)CC1)c1ccco1 [S981843]		0.066	
CCOc1ccc(C(=O)NCCCCN2CCN(c3csc4cc(C(F)(F)F)ccc34)CC2)cc1 [compound 815541]	12		
O=C(NCCCCN1CCN(c2csc3cc(C(F)(F)F)ccc23)CC1)c1ccc(F)cc1F [compound 815542]	5.6		
O=C(NCCCCN1CCN(c2csc3cc(C(F)(F)F)ccc23)CC1)c1ccc2c(c1)OCO2 [compound 815544]	1.7		
CCCCOc1ccc(C(=O)NCCCCN2CCN(c3csc4cc(C(F)(F)F)ccc34)CC2)cc1 [compound 815545]	38.6		
O=C(NCCCCN1CCN(c2csc3cc(C(F)(F)F)ccc23)CC1)c1sc2ccccc2c1Cl [compound 815546]	49		
O=C(NCCCCN1CCN(c2csc3cc(C(F)(F)F)ccc23)CC1)c1ccc(Cl)cc1 [compound 815548]	1.6		
O=C(NCCCCN1CCN(c2csc3cc(C(F)(F)F)ccc23)CC1)c1ccc(Br)cc1 [compound 815551]	4.3		
COc1ccccc1C(=O)NCCCCN1CCN(c2csc3cc(C(F)(F)F)ccc23)CC1 [compound 815554]	9.7		
O=C(NCCCCN1CCN(c2csc3cc(C(F)(F)F)ccc23)CC1)c1ccc(C(F)(F)F)cc1 [compound 815555]	7		
O=C(NCCCCN1CCN(c2csc3cc(C(F)(F)F)ccc23)CC1)c1ccco1 [compound 815556]	6.4		
O=C(NCCCCN1CCN(c2csc3cc(C(F)(F)F)ccc23)CC1)c1c(F)cccc1F [compound 815557]	8.7		
O=C(NCCCCN1CCCN(c2csc3cc(F)ccc23)CC1)c1ccc(OC(F)(F)F)cc1 [compound 822152]		4.5	
O=C(NCCCCN1CCCN(c2csc3cc(F)ccc23)CC1)c1cccc(F)c1 [compound 822154]		5.3	
COc1ccccc1C(=O)NCCCCN1CCCN(c2csc3cc(F)ccc23)CC1 [compound 822157]		1.4	
CC(C)(C)c1ccc(C(=O)NCCCCN2CCCN(c3csc4cc(F)ccc34)CC2)cc1 [compound 822198]		10.5	
